Reference: patent publication US20230129258A1, “HETEROTANDEM BICYCLIC PEPTIDE COMPLEXES” (BicycleTx Limited, priority 2019, published 2023)
Where two headings read alike, the source gives them in different places. Starred links: 1 amine or outer side, 2 acyl side, 3 side chain; linkers in the order of their positions; H or OH if unused. Positions of bridges follow the written chain, without caps; N, C: chain ends. Non-standard residues stand in square brackets, D forms with d. Chains are numbered I, II in the order given. No end group written: not given here. *: point of attachment. X1 = O=C(CCOCCOCCOCCN(CCOCCOCCOCCn1cc(CCC(=O)[*:2])nn1)CCOCCOCCOCCn1cc(CCC(=O)[*:3])nn1)[*:1]; X2 = O=C(CCSCCC(=O)[*:1])N1CN(C(=O)CC[*:2])CN(C(=O)CC[*:3])C1; TATA = O=C(CC[*:1])N1CN(C(=O)CC[*:2])CN(C(=O)CC[*:3])C1; Dip = N[C@H](C(=O)O)C(c1ccccc1)c1ccccc1; Hyp = O=C(O)[C@@H]1C[C@@H](O)CN1; hArg = N=C(N)NCCCC[C@H](N)C(=O)O; tBuAla = CC(C)(C)C[C@H](N)C(=O)O; Nle = CCCC[C@H](N)C(=O)O; Pent4ynoyl = C#CCCC(=O)*; Mpa = O=C(O)CCS

Key:
CD137 = CD137 (Homo sapiens, UniProt Q07011); test: CD137 reporter assay (Promega, Jurkat cells) in co-culture with EphA2-expressing tumor cells (A549, PC3, HT29); format: cell-based; parameters: host or cells: Jurkat reporter cells; settings: for Emax (fold induction over background): CD137 reporter coculture assay with PC3 tumor cells; for EC50: EC50, CD137 reporter coculture assay with PC3 tumor cells
Chain of CD137 (Q07011 24-255): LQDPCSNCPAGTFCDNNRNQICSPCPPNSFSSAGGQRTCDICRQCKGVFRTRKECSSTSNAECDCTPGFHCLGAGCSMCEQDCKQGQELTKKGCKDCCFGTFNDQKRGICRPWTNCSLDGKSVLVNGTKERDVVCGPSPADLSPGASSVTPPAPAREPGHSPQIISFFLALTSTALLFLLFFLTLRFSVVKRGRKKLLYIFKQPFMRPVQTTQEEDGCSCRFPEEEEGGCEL
How it was run: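 Readout is Bio-Glo luminescence after 6 h, 37° C co-culture of CD137 reporter Jurkat cells, target tumor cells (EphA2: A549, PC3, HT29; PD-L1: RKO) and titrated test articles in 1% FBS RPMI. EC50 (nM) and maximal induction come from fold change over untreated co-culture.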

human PBMCs = test: Human PBMC co-culture cytokine secretion assay with EphA2-expressing tumor cells (MC38, HT-1080, HT29); format: cell-based
Protocol: […] MC38 were cultured in Dulbecco's Modified Eagle Medium supplemented with 10% heat inactivated Fetal Bovine Serum (FBS), 1× Penicillin/Streptomycin, 10 mM HEPES, and 2 mM L-Glutamine (referred to as R10 medium). Frozen PBMCs from healthy human donors were thawed and washed once in room temperature PBS with benzonase, and then resuspended in RPMI supplemented with 10% heat inactivated Fetal Bovine Serum (FBS), 1× Penicillin/Streptomycin, 10 mM HEPES, and 2 mM L-Glutamine (herein referred to as R10 medium). 100 μl of PBMCs (1,000,000 PBMCs/ml) and 100 μl of tumor cells (100,000 tumor cells/ml) (Effector:Target cell ratio (E:T) 10:1) were plated in each well of a 96 well flat bottom plate for the co-culture assay. 100 ng/ml of soluble anti-CD3 mAb (clone OKT3) was added to the culture on day 0 to stimulate human PBMCs. Test, control compounds, or vehicle controls were diluted in R10 media and 50 μL was added to respective wells to bring the final volume per well to 250 μL. Plates were covered with a breathable film and incubated in a humidified chamber at 37° C. with 5% CO2 for two days. […] Briefly, the standards and samples were added to a black 96 well plate. Microparticle cocktail (provided in Luminex kit, R&D Systems) was added and shaken for 2 hours at room temperature. The plate was washed 3 times using a magnetic holder. Biotin cocktail was then added to the plate and shaken for 1 hour at RT. The plate was washed 3 times using a magnetic holder. Streptavidin cocktail was added to the plate and shaken for 30 minutes at RT. The plates were washed 3 times using a magnetic holder, resuspended in 100 μL of wash buffer, shaken for 2 minutes at RT, and read using the Luminex 2000. Raw data were analyzed using built-in Luminex software to generate standard curves and interpolate protein concentrations, all other data analyses and graphing were performed using Excel and Prism software. Data represents one study with three independent donor PBMCs tested in experimental duplicates.
Similarly, PBMCs from healthy donors were co-cultured with EphA2 expressing cancer cells (MC38 and HT-1080) at a ratio of 5:1 in presence of anti-CD3 and BCY13272. […]

MC38 tumors = test: Anti-tumor activity of EphA2/CD137 complexes in syngeneic MC38 tumor model; format: in vivo, C57BL/6J-hCD137 mice; settings: 15 mg/kg IV Q3D, 7 doses; day 28
Protocol: 6-8 weeks old C57BL/6J-hCD137 female mice were inoculated in the flank with 1×10^6 syngeneic MC38 cells. When tumors reached 76 mm^3 size on average, mice were randomized to receive vehicle or BCY12491 (intraperitoneal administration). BCY12491 was administered (n=6 mice/treatment cohort) at either 5 mg/kg or 15 mg/kg either daily (QD) or every three days (Q3D). QD dosed mice received 22 doses of BCY12491 and Q3D dosed mice received 8 doses of BCY12491. Tumor growth was monitored by caliper measurements until day 73 after treatment initiation. The results of this experiment may be seen in FIG. 9 where it can be seen that the effect of BCY12491 on tumor growth becomes apparent in the first two weeks of the dosing period reducing the tumor growth and causing reduction of volumes of many of the treated tumors. By day 41, 15 out of 24 BCY12491 treated animals had completely responded to the treatment and had no palpable tumors left.
6-8 week old female C57BL/6J-hCD137 mice [B-hTNFRSF9(CD137) mice; Biocytogen] were implanted subcutaneously with 1×10^6 MC38 cells. Mice were randomized into treatment groups (n=6/cohort) when average tumor volumes reached around 76 mm^3 and were treated with daily doses of vehicle (25 mM histidine, 10% sucrose, pH7). BCY12491 treatment was conducted at two different dose levels (5 and 15 mg/kg) and two different dosing schedules (QD: daily; Q3D: every three days). Animals received either 22 QD doses or 8 Q3D doses intraperitoneally (ip). Tumor growth was monitored until tumor reached volumes over 2000 mm^3 or until 73 days after treatment initiation. After Day 73, 5 complete responder animals were re-challenged with MC38 tumor cell implantation alongside with 5 naïve C57BL/6J-hCD137 mice. Tumor growth was monitored for 20 days.
(§1) 6-8 week old female C57BL/6J-hCD137 mice [B-hTNFRSF9(CD137) mice; Biocytogen] were implanted subcutaneously with 1×10^6 MC38 cells. Mice were randomized into treatment groups (n=6/cohort) when average tumor volumes reached around 92 mm^3 and were treated intravenously with Q3D doses of vehicle (25 mM histidine, 10% sucrose, pH7), 15 mg/kg of BCY12730, BCY12723 or BCY12491 (7 Q3D doses). Tumor growth was monitored for 28 days or until tumors exceeded 2000 mm^3.
as §1, with “76” for “92”, “twice weekly (BIW)” for “Q3D”, “5” for “15”, “BCY13048, BCY13050,” for “BCY12730, BCY12723”, “(6 BIW” for “(7 Q3D”

[1] = Pharmacokinetics in CD1 mice; format: in vivo, CD-1 mice; settings: mouse, in vivo; mice, after IP injection; read-out: circulating plasma half-life (converted)
Protocol: (§2) Serial bleeding (about 80 μL blood/time point) was performed via submandibular or saphenous vein at each time point. All blood samples were immediately transferred into prechilled microcentrifuge tubes containing 2 μL K2-EDTA (0.5M) as anti-coagulant and placed on wet ice. Blood samples were immediately processed for plasma by centrifugation at approximately 4° C., 3000 g. The precipitant including internal standard was immediately added into the plasma, mixed well and centrifuged at 12,000 rpm, 4° C. for 10 minutes. The supernatant was transferred into pre-labeled polypropylene microcentrifuge tubes, and then quick-frozen over dry ice. The samples were stored at […] or below as needed until analysis. 7.5 μL of the supernatant samples were directly injected for LC-MS/MS analysis using an Orbitrap Q Exactive in positive ion mode to determine the concentrations of analyte. Plasma concentration versus time data were analyzed by non-compartmental approaches using the Phoenix WinNonlin 6.3 software program. C0, CI, Vdss, T½, AUC(0-last), AUC(0-inf), MRT(0-last), MRT(0-inf) and graphs of plasma concentration versus time profile were reported.

[2] = Pharmacokinetics in cynomolgus monkey; format: in vivo; settings: in vivo, IV infusion (15 min), 1 mg/kg
Protocol: Serial bleeding (about 1.2 ml blood/time point) was performed from a peripheral vessel from restrained, non-sedated animals at each time point into a commercially available tube containing Potassium (K2) EDTA*2H2O (0.85-1.15 mg) on wet ice and processed for plasma. Samples were centrifuged (3,000×g for 10 minutes at 2 to 8° C.) immediately after collection. 0.1 mL plasma was transferred into labelled polypropylene micro-centrifuge tubes. 5-fold of the precipitant including internal standard 100 ng/mL Labetalol & 100 ng/mL dexamethasone & 100 ng/mL tolbutamide & 100 ng/mL Verapamil & 100 ng/mL Glyburide & 100 ng/mL Celecoxib in MeOH was immediately added into the plasma, mixed well and centrifuged at 12,000 rpm for 10 minutes at 2 to 8° C. Samples of supernatant were transferred into the pre-labeled polypropylene microcentrifuge tubes, and frozen over dry ice. The samples were stored at −60° C. or below until LC-MS/MS analysis. An aliquot of 40 μL calibration standard, quality control, single blank and double blank samples were added to the 1.5 mL tube. Each sample (except the double blank) was quenched with 200 μL IS1 respectively (double blank sample was quenched with 200 μL MeOH with 0.5% tritonX-100), and then the mixture was vortex-mixed well (at least 15 s) with vortexer and centrifuged for 15 min at 12000 g, 4° C. A 10 μL supernatant was injected for LC-MS/MS analysis using an Orbitrap Q Exactive in positive ion mode to determine the concentrations of analyte. Plasma concentration versus time data were analyzed by non-compartmental approaches using the Phoenix WinNonlin 6.3 software program. C0, CI, Vdss, T½, AUC(0-last), AUC(0-inf), MRT(0-last), MRT(0-inf) and graphs of plasma concentration versus time profile were reported.

[3] = Pharmacokinetics in SD rats; format: in vivo; settings: rat, in vivo; for half-life: iv, read-out: T1/2 (converted); for clearance: read-out: Clp; for Vd: read-out: Vdss
Protocol: as §2, with “Male SD Rats were dosed with each heterotandem Bicycle peptide complex formulated in 25 mM Histidine HCl, 10% sucrose pH 7 by IV bolus or IV infusion (15 minutes). Serial” for “Serial”

[4] = human PBMC-MC38 co-culture, Donor 1, 48 h incubation, read-out: Donor 1 EC50 of IFNγ secretion
[5] = human PBMC-MC38 co-culture, Donor 2, 48 h incubation, read-out: Donor 2 EC50 of IFNγ secretion

BCY12723: EphA2:CD137 1:2; BCY9594 + 2x BCY12143; linker N-(acid-PEG3)-N-bis(PEG3-azide) (peptide 1 A[hArg]DC[Hyp]LVNPLCLHP[dD]W[hArg]C; peptide 2 Ac-C[tBuAla]EE[dK](Pent4ynoyl)PYCFADPY[Nle]C; linker I:4-I:11-I:18, II:1-II:8-II:15 via TATA; not fully specified (bridges); also: chain 2 present twice on linker, EphA2:CD137 1:2)
Fold Improvement over BCY9173, EC50 (nM) (CD137; co-culture with PC3): 2.2 fold
Fold Improvement over Emax (CD137; co-culture with PC3, versus BCY9173): 1.8 fold
EC50 (human PBMCs; human PBMC-MC38 co-culture, Donor 1, 72 h incubation, read-out: Donor 1 EC50 of IFNγ secretion): 0.13 nM
EC50 (human PBMCs; human PBMC-MC38 co-culture, Donor 2, 72 h incubation, read-out: Donor 2 EC50 of IFNγ secretion): 0.095 nM
complete responses (MC38 tumors): 2 out of 6

I: A[hArg]DC[Hyp]LVNPLCLHP[dD]W[hArg]C-NH2 / II: Ac-C[tBuAla]PE[dK]PYCFADPY[Nle]CA-NH2 / III: Ac-C[tBuAla]PE[dK]PYCFADPY[Nle]CA-NH2 (linker I:4-I:11-I:18, II:1-II:8-II:15, III:1-III:8-III:15 via TATA; linker I:N-II:5-III:5 via X1) [BCY12491]
half-life [1]: 2.5 h
clearance ([2]; read-out: Clp): 3 mL/min/kg
half-life ([2]; read-out: T1/2 (converted)): 3.2 h
Vd ([2]; read-out: Vdss): 0.36 L/kg
half-life ([3]; IV Bolus): 1.3 h
clearance ([3]; IV Bolus): 20 mL/min/kg
Vd ([3]; IV Bolus): 1.6 L/kg
EC50 (human PBMCs; MC38 co-culture, donor 228711, read-out: EC50 of IFN-γ cytokine secretion): 0.085 nM
EC50 (human PBMCs; MC38 co-culture, donor 228769, read-out: EC50 of IFN-γ cytokine secretion): 0.034 nM

I: A[hArg]DC[Hyp]LVNPLCLHP[dD]W[hArg]C-NH2 / II: [Mpa][tBuAla]PE[dK]PYCFADPY[Nle]C-NH2 / III: [tBuAla]PE[dK]PYCFADPY[Nle]C-NH2 (linker I:4-I:11-I:18, II:1-II:8-II:15 via TATA; linker I:N-II:5-III:4 via X1; linker III:N-III:7-III:14 via X2) [BCY12730]
half-life ([3]; IV Inf (15 minutes)): 2 h
clearance ([3]; IV Inf (15 minutes)): 18 mL/min/kg
Vd ([3]; IV Inf (15 minutes)): 2.6 L/kg
Emax (fold induction over background) (CD137): 61.73
EC50 (CD137): 0.25 nM
EC50 (human PBMCs; [4]): 0.13 nM
EC50 (human PBMCs; [5]): 0.19 nM
complete responses (MC38 tumors): 3 out of 6

I: A[hArg]DC[Hyp]LVNPLCL[Dip]P[dD]WTC-NH2 / II: Ac-C[tBuAla]PE[dK]PYCFADPY[Nle]CA-NH2 / III: Ac-C[tBuAla]PE[dK]PYCFADPY[Nle]CA-NH2 (linker I:4-I:11-I:18, II:1-II:8-II:15, III:1-III:8-III:15 via TATA; linker I:N-II:5-III:5 via X1) [BCY13047]
Emax (fold induction over background) (CD137): 46.43
EC50 (CD137): 0.07 nM
EC50 (human PBMCs; [4]): 0.31 nM
EC50 (human PBMCs; [5]): 0.3 nM
